Experimental findings from US9695154B2, “Heteroaryl inhibitors of sumo activating enzyme” (MILLENNIUM PHARMACEUTICALS, INC., priority 2013, dated 2017) are described below.

The target of this experiment is T1, recombinant human SAE enzyme (Homo sapiens, UniProt Q9UBT2).
T1 sequence (Q9UBT2 1-640): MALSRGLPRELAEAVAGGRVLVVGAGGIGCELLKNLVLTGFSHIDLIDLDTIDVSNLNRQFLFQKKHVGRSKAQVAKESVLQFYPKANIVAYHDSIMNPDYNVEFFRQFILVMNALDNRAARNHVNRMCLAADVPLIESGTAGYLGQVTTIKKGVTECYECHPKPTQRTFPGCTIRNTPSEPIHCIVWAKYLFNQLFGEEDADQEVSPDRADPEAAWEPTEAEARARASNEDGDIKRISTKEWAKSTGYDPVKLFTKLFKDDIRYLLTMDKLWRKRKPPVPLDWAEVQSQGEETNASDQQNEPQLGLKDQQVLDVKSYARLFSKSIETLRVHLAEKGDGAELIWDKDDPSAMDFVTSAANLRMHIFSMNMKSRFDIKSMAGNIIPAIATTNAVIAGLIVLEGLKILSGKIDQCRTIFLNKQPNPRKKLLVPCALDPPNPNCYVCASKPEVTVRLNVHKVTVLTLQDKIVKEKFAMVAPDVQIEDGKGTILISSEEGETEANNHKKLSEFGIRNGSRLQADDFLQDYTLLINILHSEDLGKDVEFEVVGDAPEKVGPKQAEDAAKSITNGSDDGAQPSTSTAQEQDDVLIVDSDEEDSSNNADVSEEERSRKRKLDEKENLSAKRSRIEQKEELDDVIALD
T1 sequence (Q9UBE0 1-346 partner): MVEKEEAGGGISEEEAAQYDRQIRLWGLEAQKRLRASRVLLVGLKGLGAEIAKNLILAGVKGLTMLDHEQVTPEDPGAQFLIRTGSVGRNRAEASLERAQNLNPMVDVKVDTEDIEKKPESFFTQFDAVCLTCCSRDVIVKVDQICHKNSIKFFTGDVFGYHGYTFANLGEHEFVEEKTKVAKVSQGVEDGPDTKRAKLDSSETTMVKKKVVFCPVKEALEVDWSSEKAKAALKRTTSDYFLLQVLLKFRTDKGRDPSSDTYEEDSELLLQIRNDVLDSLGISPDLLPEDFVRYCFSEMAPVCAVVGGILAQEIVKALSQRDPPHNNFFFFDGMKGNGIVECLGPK
The experiment can be described thus: SAE HTRF Enzyme Assay. Conditions: for IC50: class symbols A-C; for inhibition at 0.111 µM: read-out: Percent Inhibition. The class given is biochemical. An outline of the steps: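 Measured as FRET after a 2 h antibody step: SAE (0.11 nM) thioester transfer of Sumo-Flag to Ubc9-GST, 0.5 μM ATP, 24° C for 105 min, quenched with 20 mM EDTA. Output is IC50 or percent inhibition at a single concentration.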
In general terms: TR-FRET usually uses a lanthanide donor and a delayed reading to cut background.

[1] abbreviates: compound concentration 0.111 μM.

In the case of `NS(=O)(=O)OC[C@H]1C[C@@H](Nc2ncncc2C(=O)c2ccn(-c3ccccc3)n2)C[C@@H]1O` [Compound I-205, [(1R,2S,4R)-2-Hydroxy-4-({5-[(1-phenyl-1H-pyrazol-3-yl)carbonyl]pyrimidin-4-yl}amino)cyclopentyl]methyl sulfamate], the IC50 lay in the range of 10 to 100 nM. Besides, the inhibition at 0.111 µM under setting [1] turned out to be 60%.
As to `CC(c1cccc(Cl)c1)n1ccc(C(=O)c2cncnc2N[C@@H]2C[C@H](COS(N)(=O)=O)[C@@H](O)C2)n1` (single isomer, unassigned) [Compound I-360, [(1R,2S,4R)-4-{[5-({1-[(1S)-1-(3-chlorophenyl)ethyl]-1H-pyrazol-3-yl}carbonyl)pyrimidin-4-yl]amino}-2-hydroxycyclopentyl]methyl sulfamate or [(1R,2S,4R)-4-{[5-({1-[(1R)-1-(3-chlorophenyl)ethyl]-1H-pyrazol-3-yl}carbonyl)pyrimidin-4-yl]amino}-2-hydroxycyclopentyl]methyl sulfamate], the IC50 was less than 10 nM. Further, the “Percent Inhibition” value (compound concentration 0.111 μM, 0.111 µM) turned out to be 99%.
For the molecule `NS(=O)(=O)OC[C@H]1C[C@@H](Nc2ncncc2C(=O)c2ccn(CC(=O)c3ccccc3)n2)[C@H](O)[C@@H]1O` [Compound I-125, {(1R,2R,3S,4R)-2,3-Dihydroxy-4-[(5-{([1-(2-oxo-2-phenylethyl)-1H-pyrazol-3-yl]carbonyl}pyrimidin-4-yl)amino]cyclopentyl}methyl sulfamate], the IC50 is less than 10 nM. Further, the inhibition at 0.111 µM under setting [1] was found to be 99%.
For `NS(=O)(=O)OC[C@H]1C[C@@H](Nc2ncncc2C(=O)c2ccn(Cc3cc4ccccc4s3)n2)C[C@@H]1O` [Compound I-241, {(1R,2S,4R)-4-[(5-{[1-(1-benzothiophen-2-ylmethyl)-1H-pyrazol-3-yl]carbonyl}pyrimidin-4-yl)amino]-2-hydroxycyclopentyl}methyl sulfamate], the IC50 is less than 10 nM. The inhibition at 0.111 µM under setting [1] was found to be 98%.
In the same order, the values of `NS(=O)(=O)OC[C@H]1C[C@@H](Nc2ncncc2C(=O)c2ccn(Cc3ccccc3C(F)(F)F)n2)[C@H](O)[C@@H]1O` [Compound I-182, [(1R,2R,3S,4R)-2,3-dihydroxy-4-{[5-({1-[2-(trifluoromethyl)benzy1]-1H-pyrazol-3-yl}carbonyl)pyrimidin-4-yl]amino}cyclopentyl]methyl sulfamate] are less than 10 nM and 96%.
Take `NS(=O)(=O)OC[C@H]1C[C@@H](Nc2ncncc2C(=O)c2cc(Cl)n(Cc3cccc(Br)c3)c2Cl)[C@@H](F)[C@@H]1O` [Compound I-105, {(1R,2R,3R,4R)-4-[(5-{[1-(3-bromobenzyl)-2,5-dichloro-1H-pyrrol-3-yl]carbonyl}pyrimidin-4-yl)amino]-3-fluoro-2-hydroxycyclopentyl}methyl sulfamate]: the half-inhibitory concentration (IC50) fell in the range of 100 to 1000 nM. Besides, the inhibition at 0.111 µM under setting [1] came to 18%.
In the same order, the values of `COc1ncccc1Cn1ccc(C(=O)c2cncnc2N[C@@H]2C[C@H](COS(N)(=O)=O)[C@@H](O)C2)n1` [Compound I-63, [(1R,2S,4R)-2-hydroxy-4-{[5-({1-[(2-methoxypyridin-3-yl)methyl]-1H-pyrazol-3-yl}carbonyl)pyrimidin-4-yl]amino}cyclopentyl]methyl sulfamate] are 10 to 100 nM and 87%.
For `NS(=O)(=O)OC[C@H]1C[C@@H](Nc2ncncc2C(=O)c2ccn(Cc3ccc(F)c4ccccc34)n2)[C@H](O)[C@@H]1O` [Compound I-273, [(1R,2R,3S,4R)-4-{[5-({1-[(4-fluoro-1-naphthyl)methyl]-1H-pyrazol-3-yl}carbonyl)pyrimidin-4-yl]amino}-2,3-dihydroxycyclopentyl]methyl sulfamate], the IC50 was less than 10 nM. Also, the inhibition at 0.111 µM under setting [1] stood at 98%.
Consider `NS(=O)(=O)OC[C@H]1C[C@@H](Nc2ncncc2C(=O)c2ccn(Cc3cccc(Br)c3)c2)[C@@H](F)[C@@H]1O` [Compound I-312, {(1R,2R,3R,4R)-4-[(5-{[1-(3-bromobenzyl)-1H-pyrrol-3-yl]carbonyl}pyrimidin-4-yl)amino]-3-fluoro-2-hydroxycyclopentyl}methyl sulfamate], for which the IC50 is less than 10 nM. The inhibition at 0.111 µM under setting [1] is 99%.
The matching figures for `NS(=O)(=O)OC[C@H]1C[C@@H](Nc2ccncc2C(=O)c2ccn(Cc3ccc(Cl)c(Cl)c3)c2)C[C@@H]1O` [Compound I-233, {(1R,2S,4R)-4-[(3-{[1-(3,4-dichlorobenzyl)-1H-pyrrol-3-yl]carbonyl}pyridin-4-yl)amino]-2-hydroxycyclopentyl}methyl sulfamate]: less than 10 nM and 98%.
In the same order, the values of `NS(=O)(=O)OC[C@H]1C[C@@H](Nc2ncncc2C(=O)c2ccn(Cc3ccc(Br)o3)c2)[C@@H](F)[C@@H]1O` [Compound I-24, [(1R,2R,3R,4R)-4-{[5-({1-[(5-Bromo-2-furyl)methyl]-1H-pyrrol-3-yl}carbonyl)pyrimidin-4-yl]amino}-3-fluoro-2-hydroxycyclopentyl]methyl sulfamate] are less than 10 nM and 100%.
The matching figures for `Cc1cc(Cn2ccc(C(=O)c3cncnc3N[C@@H]3C[C@H](COS(N)(=O)=O)[C@@H](O)C3)n2)ccc1F` [Compound I-14, {(1R,2S,4R)-4-[(5-{[1-(4-fluoro-3-methylbenzyl)-1H-pyrazol-3-yl]carbonyl}pyrimidin-4-yl)amino]-2-hydroxycyclopentyl}methyl sulfamate]: less than 10 nM and 98%.
Consider `NS(=O)(=O)OC[C@H]1C[C@@H](Nc2ncncc2C(=O)c2ccn(Cc3cc(Br)ccc3Cl)n2)[C@@H](F)[C@@H]1O` [Compound I-207, {(1R,2R,3R,4R)-4-[(5-{[1-(5-bromo-2-chlorobenzyl)-1H-pyrazol-3-yl]carbonyl}pyrimidin-4-yl)amino]-3-fluoro-2-hydroxycyclopentyl}methyl sulfamate], for which the IC50 is less than 10 nM. Besides, the inhibition at 0.111 µM under setting [1] was 99%.
Regarding `NS(=O)(=O)OC[C@H]1C[C@@H](Nc2ncncc2C(=O)c2ccn(Cc3ccc(F)c(I)c3)n2)C[C@@H]1O` [Compound I-245, {(1R,2S,4R)-4-[(5-{[1-(4-fluoro-3-iodobenzyl)-1H-pyrazol-3-yl]carbonyl}pyrimidin-4-yl)amino]-2-hydroxycyclopentyl}methyl sulfamate], the concentration for half-maximal inhibition (IC50) was less than 10 nM. Moreover, the inhibition at 0.111 µM under setting [1] worked out at 100%.
In the same order, the values of `Cn1ccc(C(=O)c2cncnc2N[C@@H]2C[C@H](COS(N)(=O)=O)[C@@H](O)[C@H]2O)n1` [Compound I-345, [(1R,2R,3S,4R)-2,3-dihydroxy-4-({5-[(1-methyl-1H-pyrazol-3-yl)carbonyl]pyrimidin-4-yl}amino)cyclopentyl]methyl sulfamate] are 100 to 1000 nM and 54%.
Turning to `COC(C)(C)C#CCn1ccc(C(=O)c2cncnc2N[C@@H]2C[C@H](COS(N)(=O)=O)[C@@H](O)[C@@H]2F)c1` [Compound I-75, {(1R,2R,3R,4R)-3-fluoro-2-hydroxy-4-[(5-{[1-(4-methoxy-4-methylpent-2-yn-1-yl)-1H-pyrrol-3-yl]carbonyl}pyrimidin-4-yl)amino]cyclopentyl}methyl sulfamate], the IC50 fell in the range of 10 to 100 nM. Also, the inhibition at 0.111 µM under setting [1] was 68%.
In the same order, the values of `NS(=O)(=O)OC[C@H]1C[C@@H](Nc2ncncc2C(=O)c2ccn(C#Cc3ccccc3)c2)C[C@@H]1O` [Compound I-196, {(1R,2S,4R)-2-Hydroxy-4-[(5-{[1-(phenylethynyl)-1H-pyrrol-3-yl]carbonyl}pyrimidin-4-yl)amino]cyclopentyl}methyl sulfamate] are 100 to 1000 nM and 33%.
For `NS(=O)(=O)OC[C@@H]1C[C@@H](Nc2ncncc2C(=O)c2ccn(Cc3cccc(Br)c3)n2)C[C@@H]1O` [Compound I-2, {(1S,2S,4R)-4-[(5-{[1-(3-bromobenzyl)-1H-pyrazol-3-yl]carbonyl}pyrimidin-4-yl)amino]-2-hydroxycyclopentyl}methyl sulfamate], the inhibition at 0.111 µM under setting [1] worked out at 99%.
As to `NS(=O)(=O)OC[C@H]1C[C@@H](Nc2ncncc2C(=O)c2ccn(Cc3csc4ccc(Cl)cc34)n2)[C@H](O)[C@@H]1O` [Compound I-285, [(1R,2R,3S,4R)-4-{[5-({1-[(5-chloro-1-benzothiophen-3-yl)methyl]-1H-pyrazol-3-yl}carbonyl)pyrimidin-4-yl]amino}-2,3-dihydroxycyclopentyl]methyl sulfamate], the IC50 is less than 10 nM. The inhibition at 0.111 µM under setting [1] was 99%.

What is called IC50 is the concentration needed to halve the response being measured. A word on the inhibition: it is how much of the control response was suppressed.
